Experiments:
[1] = molecular target: Tubulin alpha chain (Sus scrofa) (UniProt P02550); assay: Tested for the effect on polymerization of the tubulin present by microtubule assembly assay; type: functional
B16 [2] = assay: Tested for cytotoxic effect against B16 melanoma cells; type: functional, Mus musculus
B16 [3] = assay: Tested for cytotoxic effect against B16 melanoma cells relative to taxol as1; type: functional, Mus musculus
[4] = molecular target: Tubulin alpha chain (Sus scrofa) (UniProt P02550); assay: Tested for the effect on polymerization of the tubulin present by microtubule assembly assay relative to taxol as1; type: functional

Tubulin alpha chain (Sus scrofa), sequence (P02550 whole entry, looked up): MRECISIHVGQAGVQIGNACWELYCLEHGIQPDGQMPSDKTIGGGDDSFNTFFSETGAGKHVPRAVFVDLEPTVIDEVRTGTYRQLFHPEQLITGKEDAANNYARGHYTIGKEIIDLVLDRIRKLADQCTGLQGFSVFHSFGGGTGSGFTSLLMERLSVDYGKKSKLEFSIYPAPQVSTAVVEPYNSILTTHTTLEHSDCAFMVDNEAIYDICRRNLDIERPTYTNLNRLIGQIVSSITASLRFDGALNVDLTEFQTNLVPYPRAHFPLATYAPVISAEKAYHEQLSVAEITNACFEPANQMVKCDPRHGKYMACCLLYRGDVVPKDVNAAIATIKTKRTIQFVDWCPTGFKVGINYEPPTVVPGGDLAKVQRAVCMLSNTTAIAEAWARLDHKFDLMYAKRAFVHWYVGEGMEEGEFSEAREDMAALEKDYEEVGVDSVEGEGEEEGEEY

ED50 ratio [1]	ED50 ratio [4]	Structure (SMILES)	ED50 ratio (B16 [2])	ED50 ratio (B16 [3])
	0.5	CC(=O)O[C@H]1C(=O)[C@@]2(C)[C@H]([C@H](OC(=O)c3ccccc3)[C@]3(O)C[C@H](OC(=O)[C@H](O)[C@@H](NC(=O)c4ccccc4)c4cccnc4)C(C)=C1C3(C)C)[C@]1(OC(C)=O)CO[C@@H]1C[C@@H]2O		27
	0.4	CC(=O)O[C@H]1C(=O)[C@@]2(C)[C@H]([C@H](OC(=O)c3ccccc3)[C@]3(O)C[C@H](OC(=O)[C@H](O)[C@@H](NC(=O)c4ccccc4)c4ccncc4)C(C)=C1C3(C)C)[C@]1(OC(C)=O)CO[C@@H]1C[C@@H]2O		1.3

Continued, compound first:

Structure (SMILES)	ED50 ratio [1]	ED50 ratio [4]	ED50 ratio (B16 [2])	ED50 ratio (B16 [3])
CC(=O)O[C@H]1C(=O)[C@@]2(C)[C@H]([C@H](OC(=O)c3ccccc3)[C@]3(O)C[C@H](OC(=O)[C@H](O)[C@@H](NC(=O)c4ccccc4)c4ccccc4)C(C)=C1C3(C)C)[C@]1(OC(C)=O)CO[C@@H]1C[C@@H]2O [PACLITAXEL]	1		1	
CC(=O)O[C@H]1C(=O)[C@@]2(C)[C@H]([C@H](OC(=O)c3ccccc3)[C@]3(O)C[C@H](OC(=O)[C@H](O)[C@@H](NC(=O)c4ccccc4)c4ccoc4)C(C)=C1C3(C)C)[C@]1(OC(C)=O)CO[C@@H]1C[C@@H]2O		0.9		3.3
CC(=O)O[C@H]1C(=O)[C@@]2(C)[C@H]([C@H](OC(=O)c3ccccc3)[C@]3(O)C[C@H](OC(=O)[C@H](O)[C@@H](NC(=O)c4ccccc4)c4ccccn4)C(C)=C1C3(C)C)[C@]1(OC(C)=O)CO[C@@H]1C[C@@H]2O		0.7		0.8
CC(=O)O[C@H]1C(=O)[C@@]2(C)[C@H]([C@H](OC(=O)c3ccccc3)[C@]3(O)C[C@H](OC(=O)[C@H](O)[C@@H](NC(=O)c4ccccc4)c4ccco4)C(C)=C1C3(C)C)[C@]1(OC(C)=O)CO[C@@H]1C[C@@H]2O		0.9		0.3
